Like-named read-outs stand apart in the source and are kept apart here.
How the values were obtained:
[1] = tested on: transcription factors (Nkx2.5, amhc, vmhc, hand2, has2, mef2a, mef2c, bmp2b, ephrinB2, ephB4) in zebrafish embryos; assay: qRT-PCR expression of transcription factors during development of zebrafish embryos (Example 4); type: in vivo; details: 8 mM FA
Procedure: In order to explore an effect of folic acid on epigenetics during development of the zebrafish embryos, the zebrafish embryos at different developmental stages were collected for testing. […] A fluorescent dye SYBR Green was used in the qRT-PCR experiment. The qRT-PCR was conducted according to the instructions of an SYBR Green qPCR Master Mix kit and a detection was conducted on an ABI (HT 7900) PCR instrument. […] An expression of β-actin was used as an internal reference and relative expression levels of other genes were calculated by a ΔΔCt method.

[2] = tested on: fetal rat heart; assay: Effect of folic acid on fetal rat heart under pharmacological dose (Example 9); type: in vivo, rats
Procedure: In order to investigate an effect of folic acid on fetal rat heart under pharmacological dose, 6 folic acid groups and a blank control group were divided in the experiment, the folic acid groups were divided into a folic acid group 1 (4.555 mg/kg/d), a folic acid group 2 (2.2775 mg/kg/d), a folic acid group 3 (0.911 mg/kg/d), a folic acid group 4 (0.4555 mg/kg/d), a folic acid group 5 (0.22775 mg/kg/d) and a folic acid group 6 (0.113875 mg/kg/d). The folic acid groups and the blank control group consisted of 4 pregnant mice each. The pregnant mice in the folic acid group 1 (4.555 mg/kg/d), the folic acid group 2 (2.2775 mg/kg/d) and the folic acid group 3 (0.911 mg/kg/d) were intraperitoneally injected, the pregnant mice in the folic acid group 4 (0.4555 mg/kg/d), the folic acid group 5 (0.22775 mg/kg/d) and the folic acid group 6 (0.113875 mg/kg/d) were intragastrically administrated, and the pregnant mice in the blank control group were naturally fed. After the female rats were administrated for 7 days, male and female rats were mated in a cage at a ratio of 1:1 overnight, a vaginal plug was checked the next morning, a day when the vaginal plug was found was regarded as day 0 of pregnancy, the pregnant mice were separately fed and administrated for 21 consecutive days, a fetus was obtained by cesarean section, and the number of fetal rats in each group was shown in FIG. 30. Fetal rat hearts were taken for a pathological examination and the results were as follows.

[3] = tested on: zebrafish embryos; details: 6 mM FA
Procedure: Transgenic zebrafish (fli-1:EGFP) were from the Model Animal Research Center of Nanjing University. Adult zebrafish aged less than 1 were used for experiment and fed at a water pH value of 7±0.2, a temperature around 28° C. and a ratio of illumination to darkness of 14 h:10 h, and with Artemia salina eggs twice a day. Three zebrafish, one female, two males, were placed in a spawning box the night before and eggs were collected the next morning. Fish eggs were placed in an embryo culture medium (prepared with 0.2 g/L of sea salt) and cultured at 28° C. […] Dead embryos were cleaned up in time. Each experiment was conducted in triplicate. […] A phenotype of malformation was observed, the number of all abnormal zebrafish where the malformation was present was recorded and a malformation rate and a rescue rate of each group were calculated. Morphological defects, a heart rate, cardiac morphology and other indicators were observed and evaluated by an SMZ745T inverted stereomicroscope.

[4] = tested on: zebrafish embryos; assay: Teratogenic effect of folic acid on zebrafish embryos (Example 3); details: for embryo coverage: 8 hpf
Procedure: Transgenic zebrafish (fli-1:EGFP) were from the Model Animal Research Center of Nanjing University. Adult zebrafish aged less than 1 were used for experiment and fed at a water pH value of 7±0.2, a temperature around 28° C. and a ratio of illumination to darkness of 14 h:10 h, and with Artemia salina eggs twice a day. Three zebrafish, one female, two males, were placed in a spawning box the night before and eggs were collected the next morning. Fish eggs were placed in an embryo culture medium (prepared with 0.2 g/L of sea salt) and cultured at 28° C. […] Dead embryos were cleaned up in time. A phenotype of malformation was observed, the number of all abnormal zebrafish where the malformation was present was recorded and a malformation rate and a rescue rate of each group were calculated. Morphological defects, a heart rate, cardiac morphology and other indicators were observed and evaluated by an SMZ745T inverted stereomicroscope.

[5] = tested on: congenital heart defects in offspring; details: cited from earlier work
[6] = tested on: heart of fetal mice; assay: Effects of folic acid and 5-methyltetrahydrofolate on heart development of fetal/neonatal mice, histology (Example 10); details: mouse, in vivo
Procedure: 75 7-week-old female C57BL/6J mice and 25 8-week-old male C57BL/6J mice were provided by Shanghai Lingchang Biotechnology Co., Ltd. with a certificate number of SCXK (Shanghai) 2018-0003. […] The female mice were randomly divided into 5 groups according to body weight: a solvent control group, a folic acid (151.66 μg/kg) group, a folic acid (303.32 μg/kg) group, a calcium 5-methyltetrahydrofolate (converted to folic acid, 151.66 μg/kg) group and a calcium 5-methyl tetrahydrofolate (converted to folic acid, 303.32 μg/kg) group. 1.1275 unit mass of the calcium 5-methyltetrahydrofolate equaled to 1 unit mass of the folic acid.
15 mice were in each group and numbered by a toe clipping method. The mice were intragastrically administrated once a day on the second day after grouping. One week after the pre-administration, male and female mice were caged at a ratio of […], a vaginal plug was observed every day from the next day, and a day when the vaginal plug was seen was recorded as day 0.5 of pregnancy. After 14 days of caging, the female mice stopped the administration, the male mice were removed, and the pregnant female mice were fed alone until litter.
After the detection, thoracic and abdominal cavities of the mice were dissected, cardiac morphology and beating were observed under a stereoscopic microscope (SMZ168, Motic, Xiamen, Fujian, China), and photographs and video recordings were taken (Motic Image Plus 3.0, Motic, Xiamen, Fujian, China). The mice were sacrificed and the hearts, the livers, the kidneys and the lungs were harvested. The hearts and the livers of the neonatal mice were selected from each group and fixed with 4% paraformaldehyde, the fixed hearts and livers were embedded in paraffin, the embedded hearts and livers were sliced and the slices were stained with H&E. A half of the other tissues were immersed in RNA later for fixation and the other half were directly immersed in liquid nitrogen and frozen for a subsequent experiment.
1-day-old neonatal mice were sacrificed, the hearts were taken and fixed with 4% paraformaldehyde, the fixed hearts were embedded in paraffin, the embedded hearts were sliced, the slices were stained with H&E and pictures were taken under a normal microscope.

[7] = Group 1: folic acid 4.555 mg/kg/d intraperitoneal
[8] = Group 2: folic acid 2.2775 mg/kg/d intraperitoneal
[9] = Group 3: folic acid 0.911 mg/kg/d intraperitoneal
[10] = Group 4: folic acid 0.4555 mg/kg/d intragastric
[11] = Group 5: folic acid 0.22775 mg/kg/d intragastric
[12] = Group 6: folic acid 0.113875 mg/kg
[13] = Group 6: folic acid 0.113875 mg/kg/d intragastric

In the case of `Nc1nc2ncc(CNc3ccc(C(=O)N[C@@H](CCC(=O)O)C(=O)O)cc3)nc2c(=O)[nH]1` [FA, pteroylglutamic acid], the “expression of bmp2b gene” value ([1]; 24 hpf) is reported as “decreased an expression of a bmp2b gene”, the “expression of mef2c gene” value ([1]; 24 hpf) is reported as “increased an expression of a mef2c gene” and the “expression of ephb4 gene” value ([1]; 48 hpf) is reported as “inhibited”. For the same molecule, the “expression of has2 gene” value ([1]; 48 hpf) was “inhibited”, the “expression of mef2c gene” value ([1]; 48 hpf) was “inhibited” and the “expression of vmhc gene” value ([1]; 48 hpf) was “increased an expression of a vmhc gene”. The Atrioventricular defects/septal defects [2, 7] was 3, the Development delay [2, 7] was 1 and the Malformation cases [2, 7] was 4. The Malformation rate [2, 7] was 12.9%, the Sparse myocardial trabeculae [2, 7] was 0 and the Atrioventricular defects/septal defects [2, 8] was 2. The Development delay [2, 8] was 2, the Malformation cases [2, 8] was 4 and the Malformation rate [2, 8] was 12.1%. For the same molecule, the Sparse myocardial trabeculae [2, 8] was 0, the Atrioventricular defects/septal defects [2, 9] was 1 and the Development delay [2, 9] was 2. It also gave a Malformation cases [2, 9] of 3, a Malformation rate [2, 9] of 11.5% and a Sparse myocardial trabeculae [2, 9] of 0. The Atrioventricular defects/septal defects [2, 10] was 5, the Development delay [2, 10] was 0 and the Malformation cases [2, 10] was 5. The Malformation rate [2, 10] was 17.2%, the Sparse myocardial trabeculae [2, 10] was 0 and the Atrioventricular defects/septal defects [2, 11] was 5. It also gave a Development delay [2, 11] of 0, a Malformation cases [2, 11] of 5 and a Malformation rate [2, 11] of 15.2%. The Sparse myocardial trabeculae [2, 11] was 0, the “atrial walls defective (number of individuals)” value [2, 12] was 1 and the “ventricular septal defects (number of individuals)” value [2, 12] was 3. For the same molecule, the Atrioventricular defects/septal defects [2, 13] was 4, the Development delay [2, 13] was 1 and the Malformation cases [2, 13] was 4. For the same molecule, the Malformation rate [2, 13] was 9.5%, the Sparse myocardial trabeculae [2, 13] was 0 and the “10 s heart rate (48 hpf) and body length (72 hpf)” value [3] was “seriously led to bradycardia and a shortened body length of zebrafish”. For the same molecule, the “survival rate of zebrafish” value ([3]; 2-72 hpf) was “severely led to a low survival rate of zebrafish”, the embryo development ([3]; 8 hpf) was “delayed development of the zebrafish embryos” and the embryo phenotype ([3]; 24 hpf) was “led to small heads and short tails of zebrafish”. The embryo phenotype ([3]; 48 hpf) was “led to pericardium edema, dyspigmentation, and intersegmental vascular hypoplasia of zebrafish”, the pericardium edema ([3]; 48 hpf) was “seriously led to pericardium edema of zebrafish” and the embryo phenotype ([3]; 72 hpf) was “led to developmental disorders of lower intestinal network blood vessels of the zebrafish”. For the same molecule, the embryo coverage ([4]; 2 mM FA) was “covered completely”, the “heart shape and lower intestinal network blood vessels” value ([4]; 2 mM FA, 72 hpf) was “normal heart shape and normal development of lower intestinal network blood vessels” and the “heart shape and lower intestinal network blood vessels” value ([4]; FA 4 mM or above, 72 hpf) was “pericardium edema malformations, atrial and ventricular elongation and developmental disorders of lower intestinal network blood vessels”. The embryo coverage ([4]; FA groups of other concentrations (4-10 mM)) was “not covered completely”, the “survival rate of embryos” value ([4]; all FA groups (2, 4, 6, 8, 10 mM)) was “low survival rate of embryos” and the “body length of embryos” value ([4]; folic acid 8 mM, 72 hpf) was “significantly shortened the body length of the embryos”. For the same molecule, the embryo morphology ([4]; folic acid, 24 hpf) was “developmental malformation of heads and tails of the embryos”, the embryonic heart rate ([4]; folic acid, especially at 48 hpf) was “affected an embryonic heart rate” and the “reduction of risk of CHD” value ([5]; folic acid supplementation, hospital case-control studies in Guangdong, Hubei, Fujian and Shanxi) was 65%. The “lower risk of giving birth to infants with heart defects” value ([5]; women taking folic acid, case-control study, north of the Netherlands) was “approximately 20%” and the “heart slices (H&E) of 1-day-old neonatal mice” value [6] was “A small block of a heart wall was defective”.
